Experimental findings from patent US7709511B2, “Benzothiazolone derivatives” (AstraZeneca AB, priority 2005, dated 2010) are described below.

Structures are written as SMILES. Where a name gives a salt, the structure may show the parent alone.

This experiment concerns the target T1, Adrenergic β2 (Homo sapiens, UniProt P07550).
T1 construct: endogenous in cells; host or cells: H292 cells
Kind of experiment: Alternative adrenergic β2 mediated cAMP production in H292 cells (AlphaScreen cAMP detection). The settings on record: for EC50: cAMP, test compounds incubated 60 minutes at room temperature, 300 μM rolipram, read-out: β2 pEC50 (converted); for β2 Int Act: fraction relative to the maximum activity determined for formoterol, 60 minutes incubation. Format: cell-based. The method, then:
Alternative Adrenergic β2 Mediated cAMP Production Cell Preparation
H292 cells were grown in 225 cm2 flasks incubator at 37° C., 5% CO2 in RPMI medium containing, 10% (v/v) FBS (foetal bovine serum) and 2 mM L-glutamine.
Adherent H292 cells were removed from tissue culture flasks by treatment with Accutase™ cell detachment solution for 15 minutes. Flasks were incubated for 15 minutes in a humidified incubator at 37° C., 5% CO2. Detached cells were re-suspended in RPMI media (containing 10% (v/v) FBS and 2 mM L-glutamine) at 0.05×10^6 cells per mL. 5000 cells in 100 μL were added to each well of a tissue-culture-treated 96-well plate and the cells incubated overnight in a humidified incubator at 37° C., 5% CO2. The culture media was removed and cells were washed twice with 100 μL assay buffer and replaced with 50 μL assay buffer (HBSS solution containing 10 mM HEPES pH7.4 and 5 mM glucose). Cells were rested at room temperature for 20 minutes after which time 25 μL of rolipram (1.2 mM made up in assay buffer containing 2.4% (v/v) dimethylsulphoxide) was added. Cells were incubated with rolipram for 10 minutes after which time test compounds were added and the cells were incubated for 60 minutes at room temperature. The final rolipram concentration in the assay was 300 μM and final vehicle concentration was 1.6% (v/v) dimethylsulphoxide. The reaction was stopped by removing supernatants, washing once with 100 μL assay buffer and replacing with 50 μL lysis buffer. The cell monolayer was frozen at −80° C. for 30 minutes (or overnight).
AlphaScreen™ cAMP Detection
The concentration of cAMP (cyclic adenosine monophosphate) in the cell lysate was determined using AlphaScreen™ methodology. The frozen cell plate was thawed for 20 minutes on a plate shaker then 10 μL of the cell lysate was transferred to a 96-well white plate. 40 μL of mixed AlphaScreen™ detection beads pre-incubated with biotinylated cAMP, was added to each well and the plate incubated at room temperature for 10 hours in the dark. The AlphaScreen™ signal was measured using an EnVision spectrophotometer (Perkin-Elmer Inc.) with the recommended manufacturer's settings. cAMP concentrations were determined by reference to a calibration curve determined in the same experiment using standard cAMP concentrations. Concentration response curves for agonists were constructed and data was fitted to a four parameter logistic equation to determine both the pEC50 and Intrinsic Activity. Intrinsic Activity was expressed as a fraction relative to the maximum activity determined for formoterol in each experiment.

T1 sequence (P07550 whole entry): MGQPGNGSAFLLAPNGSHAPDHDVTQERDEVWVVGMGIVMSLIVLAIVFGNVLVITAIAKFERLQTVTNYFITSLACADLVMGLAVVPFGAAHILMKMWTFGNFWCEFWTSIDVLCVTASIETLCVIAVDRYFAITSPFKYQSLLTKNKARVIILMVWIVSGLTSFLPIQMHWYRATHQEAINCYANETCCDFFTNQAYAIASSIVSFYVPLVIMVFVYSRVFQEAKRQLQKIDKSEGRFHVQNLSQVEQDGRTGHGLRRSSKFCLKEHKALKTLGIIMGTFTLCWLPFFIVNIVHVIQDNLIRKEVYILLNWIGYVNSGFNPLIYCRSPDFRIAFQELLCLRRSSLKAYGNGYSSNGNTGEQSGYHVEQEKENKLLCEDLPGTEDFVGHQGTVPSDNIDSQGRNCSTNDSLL

In the case of `O=c1[nH]c2c(O)ccc(CCNCCN(CCCOCCc3ccccc3)CCc3ccccc3)c2s1` [Example 13, 4-Hydroxy-7-[2-({2-[[3-(2-phenylethoxy)propyl](2-phenylethyl)amino]ethyl}amino)-ethyl]-1,3-benzothiazol-2(3H)-one], the EC50 is 63.1 nM and the “β2 Int Act” value is given as 0.5.
The matching figures for `CN(C)CCN(CCNCCc1ccc(O)c2[nH]c(=O)sc12)C(=O)CCOCCc1ccccc1` [Example 14, N-[2-(Dimethylamino)ethyl]-N-(2-{[2-(4-hydroxy-2-oxo-2,3-dihydro-1,3-benzothiazol-7-yl)ethyl]amino}ethyl)-3-(2-phenylethoxy)propanamide]: 7.94 nM and 1.
The matching figures for `CCN(CC)CCN(CCNCCc1ccc(O)c2[nH]c(=O)sc12)C(=O)CCOCCc1ccc(O)cc1` [Example 19, N-[2-(Diethylamino)ethyl]-N-(2-{[2-(4-hydroxy-2-oxo-2,3-dihydro-1,3-benzothiazol-7-yl)ethyl]amino}ethyl)-3-[2-(4-hydroxyphenyl)ethoxy]propanamide ditrifluoroacetate]: 12.6 nM and 0.8.
Regarding `CCN(CC)CCN(CCNCCc1ccc(O)c2[nH]c(=O)sc12)C(=O)CCOCCc1cc(OC)ccc1Br` [Example 21, 3-[2-(2-Bromo-5-methoxyphenyl)ethoxy]-N-[2-(diethylamino)ethyl]-N-(2-{[2-(4-hydroxy-2-oxo-2,3-dihydro-1,3-benzothiazol-7-yl)ethyl]amino}ethyl)propanamide dihydrobromide], the EC50 was 79.4 nM and the “β2 Int Act” value is 0.6.
The like results for `CCN(CC)CCN(CCNCCc1ccc(O)c2[nH]c(=O)sc12)C(=O)CCOCCc1c(Cl)cccc1Cl` [Example 24, 3-[2-(2,6-Dichlorophenyl)ethoxy]-N-(2-diethylaminoethyl)-N-{2-[2-(4-hydroxy-2-oxo-2,3-dihydro-1,3-benzothiazol-7-yl)ethylamino]ethyl}propanamide dihydrobromide] were, in that order, 100 nM and 0.9.
For `CCN(CC)CCN(CCNCCc1ccc(O)c2[nH]c(=O)sc12)C(=O)CCOCCc1cccc(C(F)(F)F)c1` [Example 25, N-(2-Diethylaminoethyl)-N-{2-[2-(4-hydroxy-2-oxo-2,3-dihydro-1,3-benzothiazol-7-yl)ethylamino]ethyl}-3-[2-(3-trifluoromethylphenyl)ethoxy]propanamide dihydrobromide], the EC50 is 63.1 nM and the “β2 Int Act” value was 0.8.
